These results are taken from patent US9969744B2, “Compounds for use in cognition improvement” (FUNDACIÓN PARA LA INVESTIGACIÓN MÉDICA APLICADA, priority 2014, dated 2018).

SMILES strings stand for the structures. Marks after values point to notes of the source that are not given here.

In one test the target is T1, PDE5A1 (Homo sapiens, UniProt O76074).
T1 construct: they are full-length with N-terminal GST tag; GST (N); purchased BPS Biosciences 60050; host or cells: baculovirus infected Sf9 cells
Nature of the test: PDE enzyme activity assay (HTRF cGMP), PDE5A. The class given is biochemical. As to conditions: recombinant enzyme; read-out: PDE5A1 inhibition (IC50). A general note: In TR-FRET formats the signal depends on donor and acceptor labels being close together.

Test [1] has as its system carboxyl terminal fragment AβPP (C99). Description: AD-related markers in Tg2576 neurons: APP processing (C99). The class given is cell-based, mouse. As to conditions: Tg2576 primary neurons, compound concentration 50 nM. The protocol:
The effects of the compounds on amyloid pathology were analysed in primary cultures after 21 days in-vitro (DIV) of neurons derived from the hippocampus and cortex of Tg2576 mouse embryos. Tg2576 mice express the human 695-aa isoform of APP (hAPP) containing the Swedish double mutation, which favours A3 production. Neurons were treated for two days and collected at day 3, 24 h after the last treatment. First it was analysed the effect of the compounds on hAPP processing by the amyloidogenic pathway by measuring the carboxyl terminal fragment AβPP (C99), which is the precursor of Aβ42. In this case the reported EC50, Table 2 (below), means a 50% decrease in C99 levels over basal (vehicle, no treatment).
To analyze APP-derived fragments and p-Tau levels in primary neuronal cultures, cells were collected in a buffer containing SDS (2%), Tris-HCl (10 mM, pH 7.4), protease inhibitors (1 mM phenylmethylsulfonyl fluoride (PMSF) and Complete Protease Inhibitor Cocktail: Roche Diagnostics) and phosphatase inhibitors (0.1 mM Na3VO4 and 1 mM NaF). The homogenates were sonicated for 2 min and centrifuged at 100,000×g for 1 h. Aliquots of the supernatant were frozen at […] and their protein concentrations determined by the Bradford method using the Bio-Rad protein assay (Bio-Rad, Hercules, Calif., USA). […]

The test system of a further test is pCREB. Description: In-vivo pCREB in hippocampus of wild type mice. As to conditions: 1 h after single dose 40 mg/kg i.p. The protocol:
(§1) Another group of animals received the vehicle (1/1/8, v:v:v, DMSO/Tween 20/saline). One hour later, mice were sacrificed by cervical dislocation and their hippocampus was quickly dissected from the brains. Total tissue homogenates were obtained by homogenizing the hippocampus in a cold lysis buffer with protease inhibitors (0.2 M NaCl, 0.1 M HEPES, 10% glycerol, 200 mM NaF, 2 mM Na4P2O7, 5 mM EDTA, 1 mM EGTA, 2 mM DTT, 0.5 mM PMSF, 1 mM Na3VO4 and Complete Protease Inhibitor Cocktail, Roche Diagnostics). The homogenate was then centrifuged at 14,000×g at 4° C. for 20 min and the supernatant aliquoted and stored at −80° C. Total protein concentrations were determined using the BioRad Bradford protein assay (BioRad Laboratories). Protein samples were analyzed as described in the “in vitro” section.

Another test has as its system AcH3. Nature of the test: In-vivo AcH3 in hippocampus of wild type mice. As to conditions: 1 h after single dose 40 mg/kg i.p. The protocol: as §1
A further test relates to aged-Tg2576 mice. Nature of the test: Memory function in aged-Tg2576 mice: Morris water maze (MWM). In kind it is in vivo. As to conditions: Tg2576 mice (16-18 month), chronic treatment 3-5 weeks, 20 mg/Kg i.p.; retention phase, day 4th; standard error in brackets. The source says:
The effect on memory function of compounds of the invention was studied in Tg2576 mice (16-18 month) after a chronic treatment of 3-5 weeks by using two different behavioral tasks: the Fear Conditioning (FC) and the Morris water maze (MWM) test, Table 5 (below)
The MWM test was used to evaluate spatial memory. After treatments, groups of animals underwent spatial reference learning and memory testing in the MWM. The water maze was a circular pool (diameter 1.2 m) filled with water maintained at 20° C. and made opaque by the addition of non-toxic white paint. Mice were trained for three consecutive days (8 trials/day) swimming to a raised platform (visible-platform). No distal visible cues were present during this phase. […] In the probe trials the platform was removed from the pool, and the percentage of time spent in the quadrant where the platform was previously set was recorded. All trials were monitored by a camera above the center of the pool connected to a SMART-LD program (Panlab S.L., Barcelona, Spain) for subsequent analysis of escape latencies, swimming speed, path length and percent time spent in each quadrant of the pool during probe trials. […]

The IC50 is the point on the concentration scale where inhibition reaches its midpoint. As to `CCCc1nn(C)c2c(=O)[nH]c(-c3cc(Cc4ccc(C(=O)Nc5ccccc5N)cc4)ccc3OCC)nc12` [Example 1-11, N-(2-aminophenyl)-4-[[4-ethoxy-3-(1-methyl-7-oxo-3-propyl-6H-pyrazolo[4,3-d]pyrimidin-5-yl)phenyl]methyl]benzamide], the IC50 at PDE5A1 was in the range of 10 to 1000 nM. Also, the “decrease in C99 levels over basal” value in test [1] is “++ (basal x0.2≤(++)<basal x0.4 (reduction between 20% and 40%))”. Further, the “pCREB increment vs basal” value in the test with pCREB is reported as “+++ (basal x2≤(+++)<basal x3)”. For the same compound, in the test with AcH3, the “AcH3 increment vs basal” value is recorded as “++ (basal x1≤(++)<basal x2)”. Besides, in the test on aged-Tg2576 mice, the “MWM (% of time on right quadrant)” value is listed as 33.83 (2.24)^c %.
